# Assay results as given in patent publication US9737523B2, “Anti-fibrogenic compounds, methods and uses thereof” (priority 2013, dated 2017).
# Columns and labels:
# [1] = system: ERK1/2; assay: ERK1/2 phosphorylation in dermal fibroblasts, Western blot; format: cell-based, human; details: 100 μg/ml
# Protocol: Cells were harvested by Trypsin/EDTA and lysed with cell lysis buffer containing 50 mM Tris-HCl (pH7.40), 150 mM NaCl, 10 mM EDTA, 5 mM EGTA, 1% TritonX-100™, 0.5% Igepal CA-630, 0.025% NaN3 and protease inhibitor cocktail (Sigma™). Cell debris was removed by centrifugation at 20,000×g for 10 minutes. The protein concentration in supernatant was determined using the MicroBCA™ method (Pierce™, Rockford, Ill.). Proteins in supernatant were mixed with protein sample loading buffer (final concentration: 60 mM Tris-HCl (pH 6.80), 2% SDS, 10% glycerol, 1.5% β-mercaptoethanol, 0.002% bromophenol blue) and size fractioned by 10% of SDS-polyacrylamide gel. After proteins were transferred onto nitrocellulose membrane by iBlot™ (Invitrogen Life Technologies™), non-specific binding were blocked with phosphate buffer saline twenty 20 (PBS-T) containing 5% skim milk for 1 hour. The membrane was then incubated with primary antibody overnight. After incubation with a secondary antibody for 1 hour, protein bands were visualized by an enhanced chemiluminescence (ECL™) detection system (Santa Cruz Biotechnology™, Santa Cruz, Calif.). […]
# [2] = system: MMP-3; assay: MMP-3 expression in human dermal fibroblasts, Western blot; format: cell-based; details: various concentrations, 48 hours, dose-dependent
# Protocol: Cells were then harvested by trypsinization and western blot analysis was performed.
# Cell debris was removed by centrifugation at 20,000×g for 10 minutes. The protein concentration in supernatant was determined using the MicroBCA™ method (Pierce™, Rockford, Ill.). Proteins in supernatant were mixed with protein sample loading buffer (final concentration: 60 mM Tris-HCl (pH 6.80), 2% SDS, 10% glycerol, 1.5% β-mercaptoethanol, 0.002% bromophenol blue) and size fractioned by 10% of SDS-polyacrylamide gel. After proteins were transferred onto nitrocellulose membrane by iBlot™ (Invitrogen Life Technologies™), non-specific binding were blocked with phosphate buffer saline twenty 20 (PBS-T) containing 5% skim milk for 1 hour. The membrane was then incubated with primary antibody overnight. After incubation with a secondary antibody for 1 hour, protein bands were visualized by an enhanced chemiluminescence (ECL™) detection system (Santa Cruz Biotechnology™, Santa Cruz, Calif.). […] The secondary antibodies were either goat anti-mouse IgG (H+L) HPR conjugate or goat anti-rabbit IgG (H+L) HPR conjugate (Bio-rad Laboratory™ (Mississauga, ON, Canada). Secondary antibodies were used at a concentration of 1:3000.
# [3] = system: rabbit ear wounds; assay: Rabbit ear hypertrophic scar model, topical application; format: in vivo
# Protocol: Female rabbits (New Zealand white) weighing 4.5-5 kg were used for this study. The protocol was reviewed and approved by the University of British Columbia animal care committees. The rabbit ear model of hypertrophic scar was created as described previously (Rahmani-Neishaboor, et al., 2010). Briefly, 2 rabbits were anesthetized by intramuscular injection of ketamine (22.5 mg/kg) and xylazine (2.5 mg/kg) followed by isoflurane gas through tracheal intubation. Four wounds were created down to bare cartilage on the ventral side of each ear using an 8-mm dermal biopsy punch to remove full-thickness sections of skin. Antibiotics were applied on wounds daily until kynurenine treatment was started.
# Kynureine in CMC gel (Rahmani-Neishaboor et al., 2010) with a concentration of 500 μg/ml was applied topically to the wounds of the experimental group (0.1 ml per wound) daily for 3 weeks starting at 1 week post wounding. The wounds of the control group were received the treatment with an equal amount of cream alone daily.
# Animals were sacrificed on weeks 3 after treatments. Scars (10 mm punch biopsies) were harvested. Each scar was sectioned in two along its longitudinal axis and half of which was processed for routine histological analysis and another half was kept at −80° C. for future use.
# Scar elevation was quantified by measuring Scar Elevation Index (SEI) from the H & E stained tissue section. The SEI is a ratio of total height in the wound tissue to the normal tissue below the hypertrophic scar.
# According to a method previously reported (Gawronskao-Kozak B. et al. 2006), half of 8 mm diameter skin punches were weighed and frozen in −80° C. Skins were homogenized in 2 ml of PBS and stored at 4° C. overnight. The next day, 1 ml of 6N HCl was added and the mixture was heated at 120° C. for 5 hours. 20 μl of cooled samples and 50 μl of chloramine T solution were added to the 96-well plate and incubated at room temperature for 20 minutes. 50 μl of Erlich solution was then added and the mixture was incubated at 65° C. for 15 minutes. Absorbance was read at 570 nm. Hydroxyproline concentration was calculated by a standard curve.
# RNA was extracted by Trizol™ (Invitrogen Life Technologies™). Briefly, 1 ml of Trizol™ was added to the homogenized skin tissue. 250 μl of chloroform was added after the mixture was standed at room temperature for 5 minutes. Top aqueous phase was transferred into a new eppendorf tube after centrifugation for 10 minute at 20,000×g. Equal volume isopropanol was added to the aqueous phase and mixed gently. The pellet was washed with 1 ml of 75% ethanol after centrifugation for 20 minutes. RNA was dissolved in DEPC treated H2O and its concentration was measured by Nanodrop2000™. cDNA was synthesized by cDNA synthesis kit from Roche according to manufacture's introduction using 1 μg of total RNA in each sample. Quantitative real-time PCR for rabbit type-1 α1 collagen, MMP-1 and housekeeper gene β-actin were performed in ViiA7 (Invitrogen™). cDNA samples were added to a PCR reaction master mix containing STBR Green Master Mix™ (Rox) (Roche™, Indianapolis, Ind.). All reactions were performed in duplicate using the following cycle conditions: 1 cycle of 95° C. for 10 minutes, 40 cycles of 95° C. for 15 seconds and 60° C. for 1 minute. The expression level of type-1 α1 collagen and MMP-1 in each sample was normalised to β-actin. RT-PCR primers: rabbit type-1 α1 collagen: 5′-[…]-3′ (Forward), 5′-[…]-3′ (Reverse); MMP-1,5′-[…]-3′ (Forward), 5′-[…]-3′ (Reverse); β-actin, 5′-[…]-3′ (Forward), 5′-[…]-3′(Reverse).
# [4] = 50 μg in 0.1 ml CMC gel daily for three weeks
# [5] = topical, versus no treatment or gel alone
smiles,measurement,setting,value
Nc1ccccc1C(=O)CC(N)C(=O)O (racemic) [kynurenine],time of peak ERK1/2 activation,[1],8 h
same,ERK1/2 phosphorylation,[1]; different times,phosphorylated
same,MMP-3 expression,[2],significantly increased
same,collagen content (Massons' trichrome staining),[3]; [4],significant reduction
same,hydroxyproline content (index for tissue collagen content),[3]; [4],significant lower
same,average scar elevation index (SEI),"[3]; 50 μg in 0.1 ml CMC gel daily for three weeks, n=8, vehicle 1.978±0.442, untreated 2.098±0.324",1.172±0.156
same,scarring versus non-treated or vehicle-only wounds,"[3]; 50 μg in 0.1 ml CMC gel daily, after three weeks",significantly less scarring
same,wound closure versus untreated or CMC gel treated controls,"[3]; 50 μg in 0.1 ml CMC gel daily, three weeks from day 8 post-wounding, data not shown",no significant difference
same,expression of MMP-1 in rabbit ear skin (quantitative RT-PCR),[3]; [5],increased
same,expression of type-1 α1 collagen in rabbit ear skin (quantitative RT-PCR),[3]; [5],decreased
